Test results published in patent publication US10966426B2, “Herbicidal compositions comprising phenylpyrimidines” (BASF SE, priority 2016, dated 2021).
Several values for one entry are separate records, joined by “and”; a condition that tells them apart may be missing. Equal entries are not always repeated.

Legend:
Format in all cases: in vivo
Poa annua = test: greenhouse pre-emergence treatment, POAAN; conditions: 20 DAT
How it was run: (§1)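 Damage rated on 0 to 100 scale (0 = normal growth, 100 = no emergence or total above-ground kill) after 2-4 weeks at species-dependent 10-25° C or 20-35° C. Seeds sown per species in loamy sand, ~3.0% humus, treated right after sowing with aqueous spray of single actives or 10% emulsion-concentrate mixtures, then hooded; additive expectation by Colby.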

Matricaria chamomilla = test: greenhouse pre-emergence treatment, MATCH; conditions: 20 DAT
Source text: The culture containers used were plastic pots containing loamy sand with approximately 3.0% of humus as substrate. The seeds of the test plants were sown separately for each species.
For the pre-emergence treatment, the active compounds, suspended or emulsified in water, were applied directly after sowing by means of finely distributing nozzles. The containers were irrigated gently to promote germination and growth and subsequently covered with transparent plastic hoods until the plants had rooted. This cover caused uniform germination of the test plants unless this was adversely affected by the active compounds.
Depending on the species, the plants were kept at 10-25° C. and 20-35° C., respectively.
The test period extended over 2 to 4 weeks. During this time, the plants were tended and their response to the individual treatments was evaluated.
Evaluation was carried out using a scale from 0 to 100. 100 means no emergence of the plants, or complete destruction of at least the above-ground parts, and 0 means no damage or normal course of growth. A good herbicidal activity is given at values of at least 70, and very good herbicidal activity is given at values of at least 85.
The respective stated components A and B, and if appropriate, C were formulated as a 10% by weight strength emulsion concentrate and, with addition of the amount of solvent system, introduced into the spray liquor used for applying the active compound. In the examples, the solvent used was water.
In the examples below, using the method of S. R. Colby (1967) “Calculating synergistic and antagonistic responses of herbicide combinations”, Weeds 15, p. 22ff., the value E, which is expected if the activity of the individual active compounds is only additive, was calculated. E=X+Y−(X·Y/100) where X=effect in percent using herbicide A at an application rate a; • Y=effect in percent using herbicide B at application rate b; • E=expected effect (in %) of herbicide A+herbicide B at application rates a+b.

Helianthus annuus = test: greenhouse pre-emergence treatment, HELAN; conditions: HELAN
How it was run: as §1

Lolium multiflorum = test: greenhouse pre-emergence treatment, LOLMU
How it was run: as §1

Polygonum convolvulus = test: greenhouse pre-emergence treatment, POLCO
How it was run: as §1

Galium aparine = test: greenhouse pre-emergence treatment, GALAP
How it was run: as §1

Stellaria media = test: greenhouse pre-emergence treatment, STEME
How it was run: as §1

Digitaria sanguinalis = test: greenhouse pre-emergence treatment, DIGSA
How it was run: as §1

Bromus sterilis = test: greenhouse pre-emergence treatment, BROST
How it was run: as §1

Polygonum aviculare = test: greenhouse post-emergence treatment, POLAV
How it was run: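 Each species was grown separately and treated once it reached 3 to 15 cm, using actives suspended or emulsified in water. Plants were kept at 10-25° C. or 20-35° C., depending on species. Damage is a 0–100 rating taken during 2 to 4 weeks.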

[1] = 20 DAT, Ex. 26 solo 31.25 gai/ha
[2] = 20 DAT, Ex. 26 solo 62.5 gai/ha
[3] = Ex. 26 solo, 62.5 gai/ha, 20 DAT
[4] = Ex. 26 solo, 125 gai/ha, 20 DAT
[5] = 20 DAT, solo Ex. 26 62.5 gai/ha
[6] = Ex. 26 solo 31.25 gai/ha, 20 DAT
[7] = Ex. 26 solo 62.5 gai/ha, 20 DAT

COC(=O)c1nc(C2CC2)ncc1-c1ccc(F)cc1Cl [Ex. 26]
% activity (Poa annua; solo Ex. 26 62.5 gai/ha): 70%
% activity (Poa annua; solo Ex. 26 125 gai/ha): 65%
% activity (Poa annua; Ex. 26 solo 62.5 gai/ha): 75% and 90%
% activity (Poa annua; Ex. 26 solo, 31.25 gai/ha): 30%
% activity (Poa annua; Ex. 26 solo, 125 gai/ha): 65%
% activity (Matricaria chamomilla; Ex. 26 solo 62.5 gai/ha): 0%
% activity (Matricaria chamomilla; Ex. 26 solo 125 gai/ha): 0%
% activity (Helianthus annuus; [1]): 0%
% activity (Helianthus annuus; [2]): 20%
% activity (Helianthus annuus; 20 DAT, Ex. 26 solo 125 gai/ha): 0%
% activity (Helianthus annuus; 21 DAT, Ex. 26 solo 125 gai/ha): 0%
% activity (Helianthus annuus; 21 DAT, Ex. 26 solo 250 gai/ha): 0%
% activity (Helianthus annuus; Ex. 26 solo 125 gai/ha, 21 DAT): 0%
% activity (Helianthus annuus; Ex. 26 solo 250 gai/ha, 21 DAT): 0%
% activity (Helianthus annuus; [3]): 0%
% activity (Helianthus annuus; [4]): 0%
% activity (Helianthus annuus; [5]): 0%
% activity (Helianthus annuus; [6]): 0%
% activity (Helianthus annuus; [7]): 0%
% activity (Helianthus annuus; Ex. 26 solo 125 gai/ha, 20 DAT): 0%
% activity (Lolium multiflorum; [1]): 10%
% activity (Lolium multiflorum; 20 DAT, LOLMU, Ex. 26 solo 62.5 gai/ha): 10%
% activity (Lolium multiflorum; Ex. 26 solo 62.5 gai/ha, 20 DAT, LOLMU): 30%
% activity (Lolium multiflorum; Ex. 26 solo, 31.25 gai/ha, 20 DAT, LOLMU): 0%
% activity (Lolium multiflorum; Ex. 26 solo, 62.5 gai/ha, 20 DAT, LOLMU): 0%
% activity (Lolium multiflorum; Ex. 26 solo, 125 gai/ha, 20 DAT, LOLMU): 0%
% activity (Lolium multiflorum; LOLMU, 20 DAT, solo Ex. 26 62.5 gai/ha): 0%
% activity (Lolium multiflorum; LOLMU, 20 DAT, solo Ex. 26 62.5 gai/ha (Table X68)): 0%
% activity (Lolium multiflorum; LOLMU, 20 DAT, solo Ex. 26 125 gai/ha): 0%
% activity (Lolium multiflorum; LOLMU, Ex. 26 solo 31.25 gai/ha, 20 DAT): 0%
% activity (Lolium multiflorum; LOLMU, Ex. 26 solo 62.5 gai/ha, 20 DAT): 0%
% activity (Lolium multiflorum; LOLMU, Ex. 26 solo 125 gai/ha, 20 DAT): 30%
% activity (Polygonum convolvulus; [2]): 0%
% activity (Polygonum convolvulus; 20 DAT, Ex. 26 solo 125 gai/ha): 0%
% activity (Polygonum convolvulus; 20 DAT, POLCO, Ex. 26 solo 31.25 gai/ha): 0%
% activity (Polygonum convolvulus; 20 DAT, POLCO, Ex. 26 solo 62.5 gai/ha): 0%
% activity (Polygonum convolvulus; 20 DAT, POLCO, Ex. 26 solo 125 gai/ha): 0%
% activity (Polygonum convolvulus; 20 DAT, POLCO, Ex. 26 solo 250 gai/ha): 30%
% activity (Polygonum convolvulus; Ex. 26 solo 62.5 gai/ha, 20 DAT, POLCO): 0%
% activity (Polygonum convolvulus; Ex. 26 solo 125 gai/ha, 20 DAT, POLCO): 0%
% activity (Polygonum convolvulus; Ex. 26 solo, 62.5 gai/ha, 20 DAT, POLCO): 0%
% activity (Polygonum convolvulus; Ex. 26 solo, 125 gai/ha, 20 DAT, POLCO): 0%
% activity (Polygonum convolvulus; POLCO, 20 DAT, solo Ex. 26 62.5 gai/ha): 0%
% activity (Polygonum convolvulus; POLCO, 20 DAT, solo Ex. 26 125 gai/ha): 0%
% activity (Polygonum convolvulus; POLCO, Ex. 26 solo 125 gai/ha, 20 DAT): 0%
% activity (Polygonum convolvulus; POLCO, Ex. 26 solo 250 gai/ha, 20 DAT): 30%
% activity (Galium aparine; [1]): 0%
% activity (Galium aparine; [2]): 0%
% activity (Galium aparine; 20 DAT, Ex. 26 solo 125 gai/ha): 0%
% activity (Galium aparine; 20 DAT, GALAP, Ex. 26 solo 31.25 gai/ha): 0%
% activity (Galium aparine; 20 DAT, GALAP, Ex. 26 solo 62.5 gai/ha): 0%
% activity (Galium aparine; 20 DAT, GALAP, Ex. 26 solo 125 gai/ha): 0%
% activity (Galium aparine; 20 DAT, GALAP, Ex. 26 solo 250 gai/ha): 0%
% activity (Galium aparine; Ex. 26 solo, 31.25 gai/ha, 20 DAT, GALAP): 0%
% activity (Galium aparine; Ex. 26 solo, 62.5 gai/ha, 20 DAT, GALAP): 0%
% activity (Galium aparine; Ex. 26 solo, 125 gai/ha, 20 DAT, GALAP): 0%
% activity (Galium aparine; GALAP, 20 DAT, solo Ex. 26 125 gai/ha): 0%
% activity (Galium aparine; GALAP, Ex. 26 solo 62.5 gai/ha, 20 DAT): 0%
% activity (Galium aparine; GALAP, Ex. 26 solo 125 gai/ha, 20 DAT): 0%
% activity (Galium aparine; GALAP, Ex. 26 solo 250 gai/ha, 20 DAT): 0%
% activity (Stellaria media; 20 DAT, Ex. 26 solo 125 gai/ha): 20%
% activity (Stellaria media; 20 DAT, Ex. 26 solo 250 gai/ha): 90%
% activity (Stellaria media; 20 DAT, solo Ex. 26 15 gai/ha): 40%
% activity (Stellaria media; [5]): 30%
% activity (Stellaria media; 20 DAT, solo Ex. 26 125 gai/ha): 0%
% activity (Stellaria media; [6]): 0%
% activity (Stellaria media; [7]): 0%
% activity (Stellaria media; Ex. 26 solo 125 gai/ha, 21 DAT): 30%
% activity (Stellaria media; Ex. 26 solo 250 gai/ha, 21 DAT): 80%
% activity (Stellaria media; [3]): 0%
% activity (Stellaria media; [4]): 0%
% activity (Digitaria sanguinalis; [1]): 30%
% activity (Digitaria sanguinalis; [2]): 30%
% activity (Digitaria sanguinalis; 20 DAT, Ex. 26 solo 125 gai/ha): 60%
% activity (Digitaria sanguinalis; DIGSA, 20 DAT, solo Ex. 26 62.5 gai/ha): 20%
% activity (Digitaria sanguinalis; DIGSA, 20 DAT, solo Ex. 26 125 gai/ha): 45%
% activity (Digitaria sanguinalis; DIGSA, 20 DAT, solo Ex. 26 125 gai/ha (Table X68)): 40%
% activity (Digitaria sanguinalis; DIGSA, Ex. 26 solo 31.25 gai/ha, 20 DAT): 35%
% activity (Digitaria sanguinalis; DIGSA, Ex. 26 solo 62.5 gai/ha, 20 DAT): 55%
% activity (Digitaria sanguinalis; DIGSA, Ex. 26 solo 125 gai/ha, 20 DAT): 60%
% activity (Digitaria sanguinalis; Ex. 26 solo 125 gai/ha, 21 DAT, DIGSA): 45%
% activity (Digitaria sanguinalis; Ex. 26 solo, 31.25 gai/ha, 20 DAT, DIGSA): 5%
% activity (Digitaria sanguinalis; Ex. 26 solo, 125 gai/ha, 20 DAT, DIGSA): 40%
% activity (Bromus sterilis; 20 DAT, BROST, Ex. 26 solo 31.25 gai/ha): 10%
% activity (Bromus sterilis; 20 DAT, BROST, Ex. 26 solo 125 gai/ha): 35%
% activity (Bromus sterilis; 21 DAT, BROST, Ex. 26 solo 125 gai/ha): 60%
% activity (Bromus sterilis; BROST, 20 DAT, solo Ex. 26 125 gai/ha): 35%
% activity (Bromus sterilis; BROST, 20 DAT, solo Ex. 26 125 gai/ha (Table X68)): 30%
% activity (Bromus sterilis; BROST, Ex. 26 solo 62.5 gai/ha, 20 DAT): 20%
% activity (Bromus sterilis; BROST, Ex. 26 solo 125 gai/ha, 20 DAT): 30%
% activity (Bromus sterilis; Ex. 26 solo 125 gai/ha, 20 DAT, BROST): 35%
% activity (Bromus sterilis; Ex. 26 solo, 31.25 gai/ha, 20 DAT, BROST): 0%
% activity (Bromus sterilis; Ex. 26 solo, 62.5 gai/ha, 20 DAT, BROST): 20%
% activity (Bromus sterilis; Ex. 26 solo, 125 gai/ha, 20 DAT, BROST): 30%
% activity (Polygonum aviculare; [2]): 75%
% activity (Polygonum aviculare; 20 DAT, Ex. 26 solo 125 gai/ha): 85%
% activity (Polygonum aviculare; Ex. 26 solo 62.5 gai/ha, 20 DAT, POLAV): 85%
% activity (Polygonum aviculare; Ex. 26 solo 125 gai/ha, 20 DAT, POLAV): 90%
% activity (Polygonum aviculare; Ex. 26 solo, 125 gai/ha, 20 DAT, POLAV): 85%
% activity (Polygonum aviculare; POLAV, 21 DAT, solo Ex. 26 125 gai/ha): 90%
